Like-named read-outs stand apart in the source and are kept apart here.
How the values were obtained:
Type in all cases: cell-based
S. maltophilia = test system: S. maltophilia
S. epidermidis = test system: S. epidermidis
E. coli = test system: E. coli
S. marcescens = test system: S. marcescens
K. pneumoniae = test system: K. pneumoniae
E. faecalis = test system: E. faecalis
P. aeruginosa = test system: P. aeruginosa
S. aureus = test system: S. aureus
A. calcoaceticus = test system: A. calcoaceticus
E. cloacae = test system: E. cloacae
[1] = test system: inherently resistant microorganisms; assay: microbe, parasite or virus in culture
[2] = test system: microorganisms with acquired resistance; assay: microbe, parasite or virus in culture; details: for Peptide MIC Alone: Gentamicin section; for FIC: peptide + Gentamicin
[3] = test system: vancomycin / teicoplanin resistant enterococci; assay: microbe, parasite or virus in culture; details: for Peptide MIC Alone: Amikacin section; for FIC: peptide + Amikacin
bacterial isolates = assay: microbe, parasite or virus in culture

Sequence: ILKKNPNNPRRK [MBI 11G6ACN]
- MIC (S. maltophilia; S. maltophilia strain SMA002): >128 µg/mL
- MIC (S. epidermidis; S. epidermidis strain SE010): 32 µg/mL
- MIC (E. coli; E. coli strain ECO005): 64 µg/mL
- MIC (S. marcescens; S. marcescens strain SMS003): >128 µg/mL
- MIC (K. pneumoniae; K. pneumoniae strain KP001): >128 µg/mL
- MIC (E. faecalis; E. faecalis strain EFS008): >128 µg/mL
- MIC (P. aeruginosa; P. aeruginosa strain PA004): >128 µg/mL
- MIC (S. aureus; S. aureus strain SA014): 64 µg/mL
- MIC (A. calcoaceticus; A. calcoaceticus strain AC002): 4 µg/mL
- MIC (E. cloacae; E. cloacae strain ECL007): >128 µg/mL

Sequence: ILKKWPNNPNRRK [MBI 11CNW1]
- MIC (S. maltophilia; S. maltophilia SMA002): 32 µg/mL
- MIC (E. coli; E. coli ECO005): 32 µg/mL
- MIC (S. marcescens; S. marcescens SMS003): >128 µg/mL
- MIC (K. pneumoniae; K. pneumoniae KP001): 32 µg/mL
- MIC (E. faecalis; E. faecalis EFS001): 8 µg/mL
- MIC (P. aeruginosa; P. aeruginosa PA004): 64 µg/mL
- MIC (S. aureus; S. aureus SA010): 4 µg/mL
- MIC (A. calcoaceticus; A. calcoaceticus AC002): 8 µg/mL
- MIC (E. cloacae; E. cloacae ECL007): 64 µg/mL

Sequence: ILKKWPWWPWRRK [MBI 11ACN]
- MIC (S. maltophilia; S. maltophilia SMA002): 64 µg/mL
- MIC (S. epidermidis; S. epidermidis SE010): 4 µg/mL
- MIC (E. coli; E. coli ECO005): 16 µg/mL
- MIC (S. marcescens; S. marcescens SMS003): >128 µg/mL
- MIC (K. pneumoniae; K. pneumoniae KP001): 16 µg/mL
- MIC (E. faecalis; E. faecalis EFS004): 8 µg/mL
- MIC (E. faecalis; E. faecalis EFS008): 64 µg/mL
- MIC (P. aeruginosa; P. aeruginosa PA004): >128 µg/mL
- MIC (S. aureus; S. aureus SA014): 8 µg/mL
- MIC (A. calcoaceticus; A. calcoaceticus AC002): 2 µg/mL
- MIC (E. cloacae; E. cloacae ECL007): >128 µg/mL

Sequence: ILPWKWPWWPWRR [MBI 10]
- MIC (S. maltophilia; S. maltophilia SMA001): 128 µg/mL
- MIC (E. coli; E. coli ECO002): 128 µg/mL
- MIC (S. marcescens; S. marcescens SMS003): >128 µg/mL
- MIC (K. pneumoniae; K. pneumoniae KP001): 128 µg/mL
- MIC (E. faecalis; E. faecalis EFS004): 8 µg/mL
- MIC (P. aeruginosa; P. aeruginosa PA003): >128 µg/mL
- MIC (S. aureus; S. aureus SA007): 2 µg/mL
- MIC (A. calcoaceticus; A. calcoaceticus AC001): 128 µg/mL

Sequence: ILRAPWWPWRRK [MBI 11H04CN]
- MIC (S. maltophilia; S. maltophilia SMA002): >128 µg/mL
- MIC (S. epidermidis; S. epidermidis SE010): 16 µg/mL
- MIC (E. coli; E. coli ECO005): 32 µg/mL
- MIC (S. marcescens; S. marcescens SMS003): >128 µg/mL
- MIC (K. pneumoniae; K. pneumoniae KP001): 64 µg/mL
- MIC (E. faecalis; E. faecalis EFS001): 2 µg/mL
- MIC (E. faecalis; E. faecalis EFS008): 8 µg/mL
- MIC (P. aeruginosa; P. aeruginosa PA004): >128 µg/mL
- MIC (S. aureus; S. aureus SA014): 4 µg/mL
- MIC (S. aureus; S. aureus SA093): 2 µg/mL
- MIC (A. calcoaceticus; A. calcoaceticus AC002): 8 µg/mL
- MIC (E. cloacae; E. cloacae ECL007): >128 µg/mL

Sequence: ILRNPNNPNRRK [MBI 11B7CNF12]
- MIC (S. maltophilia; S. maltophilia strain SMA002): 64 µg/mL
- MIC (E. coli; E. coli strain ECO005): 16 µg/mL
- MIC (S. marcescens; S. marcescens strain SMS003): >128 µg/mL
- MIC (K. pneumoniae; K. pneumoniae strain KP001): 16 µg/mL
- MIC (E. faecalis; E. faecalis strain EFS001): 2 µg/mL
- MIC (P. aeruginosa; P. aeruginosa strain PA004): >128 µg/mL
- MIC (A. calcoaceticus; A. calcoaceticus strain AC002): 4 µg/mL

Sequence: KWKLFIKKLTPAVKKVLLTGLPALIS [MBI 29F1]
- Peptide MIC + Amikacin ([1]; A. baumannii): 2 µg/mL
- Peptide MIC Alone ([1]; A. baumannii, Amikacin section): 8 µg/mL
- Peptide MIC + Amikacin ([1]; S. maltophilia): 2 µg/mL
- FIC ([1]; peptide + Amikacin, A. baumannii): 0.75
- Gentamicin MIC + Peptide ([2]; A. calcoaceticus AC001): 2 µg/mL
- Peptide MIC + Gentamicin ([2]; A. calcoaceticus AC001): 4 µg/mL
- Peptide MIC Alone ([2]; A. calcoaceticus AC001): 8 µg/mL
- Gentamicin MIC + Peptide ([2]; P. aeruginosa PA023): 0.125 µg/mL
- Peptide MIC + Gentamicin ([2]; P. aeruginosa PA023): 64 µg/mL
- Peptide MIC Alone ([2]; P. aeruginosa PA023): 128 µg/mL
- FIC ([2]; A. calcoaceticus AC001): 0.75
- FIC ([2]; P. aeruginosa PA023): 0.52
- Amikacin MIC + Peptide ([3]; E. faecalis EFS008): 4 µg/mL
- Peptide MIC + Amikacin ([3]; E. faecalis EFS008): 0.5 µg/mL
- Peptide MIC Alone ([3]; E. faecalis EFS008): 4 µg/mL
- Amikacin MIC + Peptide ([3]; E. faecium EFM004): 8 µg/mL
- Peptide MIC + Amikacin ([3]; E. faecium EFM004): 16 µg/mL
- Peptide MIC Alone ([3]; E. faecium EFM004): 32 µg/mL
- FIC ([3]; E. faecalis EFS008): 0.19
- FIC ([3]; E. faecium EFM004): 0.53
- Peptide MIC Alone (bacterial isolates; 1. Amikacin, A. baumannii ABI001): 8 µg/mL
- Peptide MIC Alone (bacterial isolates; 1. Amikacin, A. baumannii ABI003): 4 µg/mL
- Peptide MIC Alone (bacterial isolates; 1. Amikacin, E. coli ECO022): 4 µg/mL
- Peptide MIC Alone (bacterial isolates; 1. Amikacin, E. faecalis EFS008): 4 µg/mL
- Peptide MIC Alone (bacterial isolates; 1. Amikacin, E. faecium EFM004): 32 µg/mL
- Peptide MIC Alone (bacterial isolates; 1. Amikacin, P. aeruginosa PA022): 4 µg/mL
- Peptide MIC Alone (bacterial isolates; 1. Amikacin, S. aureus SA014 MRSA): 4 µg/mL
- Peptide MIC Alone (bacterial isolates; 1. Amikacin, S. epidermidis SE002): 32 µg/mL
- Peptide MIC Alone (bacterial isolates; 1. Amikacin, S. epidermidis SE003): 32 µg/mL
- Peptide MIC Alone (bacterial isolates; 1. Amikacin, S. maltophilia SMA021): 8 µg/mL
- Peptide MIC Alone (bacterial isolates; 1. Amikacin, S. maltophilia SMA022): 16 µg/mL
- Peptide MIC Alone (bacterial isolates; 4. Gentamicin, P. aeruginosa PA023): 128 µg/mL
- Peptide MIC Alone (bacterial isolates; 4. Gentamicin, S. maltophilia SMA016): 32 µg/mL
- Peptide MIC Alone (bacterial isolates; 4. Gentamicin, S. maltophilia SMA017): 4 µg/mL
- Amikacin MIC + Peptide (bacterial isolates; A. baumannii ABI001): 0.25 µg/mL
- Peptide MIC + Amikacin (bacterial isolates; A. baumannii ABI001): 4 µg/mL
- Amikacin MIC + Peptide (bacterial isolates; A. baumannii ABI003): 2 µg/mL
- Peptide MIC + Amikacin (bacterial isolates; A. baumannii ABI003): 2 µg/mL
- Peptide MIC + Amikacin (bacterial isolates; E. coli ECO022): 2 µg/mL
- Amikacin MIC + Peptide (bacterial isolates; E. faecalis EFS008): 16 µg/mL
- Peptide MIC + Amikacin (bacterial isolates; E. faecalis EFS008): 0.125 µg/mL
- Amikacin MIC + Peptide (bacterial isolates; E. faecium EFM004): 32 µg/mL
- Peptide MIC + Amikacin (bacterial isolates; E. faecium EFM004): 8 µg/mL
- Amikacin MIC + Peptide (bacterial isolates; P. aeruginosa PA022): 64 µg/mL
- Peptide MIC + Amikacin (bacterial isolates; P. aeruginosa PA022): 0.125 µg/mL
- Gentamicin MIC + Peptide (bacterial isolates; P. aeruginosa PA023): 0.125 µg/mL
- Peptide MIC + Gentamicin (bacterial isolates; P. aeruginosa PA023): 64 µg/mL
- Amikacin MIC + Peptide (bacterial isolates; S. aureus SA014 MRSA): 16 µg/mL
- Peptide MIC + Amikacin (bacterial isolates; S. aureus SA014 MRSA): 0.125 µg/mL
- Amikacin MIC + Peptide (bacterial isolates; S. epidermidis SE002): 16 µg/mL
- Peptide MIC + Amikacin (bacterial isolates; S. epidermidis SE002): 4 µg/mL
- Amikacin MIC + Peptide (bacterial isolates; S. epidermidis SE003): 16 µg/mL
- Peptide MIC + Amikacin (bacterial isolates; S. epidermidis SE003): 8 µg/mL
- Gentamicin MIC + Peptide (bacterial isolates; S. maltophilia SMA016): 16 µg/mL
- Peptide MIC + Gentamicin (bacterial isolates; S. maltophilia SMA016): 16 µg/mL
- Gentamicin MIC + Peptide (bacterial isolates; S. maltophilia SMA017): 32 µg/mL
- Peptide MIC + Gentamicin (bacterial isolates; S. maltophilia SMA017): 0.125 µg/mL
- Amikacin MIC + Peptide (bacterial isolates; S. maltophilia SMA021): 8 µg/mL
- Peptide MIC + Amikacin (bacterial isolates; S. maltophilia SMA021): 2 µg/mL
- Amikacin MIC + Peptide (bacterial isolates; S. maltophilia SMA022): 16 µg/mL
- Peptide MIC + Amikacin (bacterial isolates; S. maltophilia SMA022): 4 µg/mL
- FIC (bacterial isolates; peptide + Amikacin, A. baumannii ABI001): 0.51
- FIC (bacterial isolates; peptide + Amikacin, A. baumannii ABI003): 0.63
- FIC (bacterial isolates; peptide + Amikacin, E. coli ECO022): 0.51
- FIC (bacterial isolates; peptide + Amikacin, E. faecalis EFS008): 0.28
- FIC (bacterial isolates; peptide + Amikacin, E. faecium EFM004): 0.38
- FIC (bacterial isolates; peptide + Amikacin, P. aeruginosa PA022): 0.53
- FIC (bacterial isolates; peptide + Amikacin, S. aureus SA014 MRSA): 0.53
- FIC (bacterial isolates; peptide + Amikacin, S. epidermidis SE002): 0.38
- FIC (bacterial isolates; peptide + Amikacin, S. epidermidis SE003): 0.50
- FIC (bacterial isolates; peptide + Amikacin, S. maltophilia SMA021): 0.31
- FIC (bacterial isolates; peptide + Amikacin, S. maltophilia SMA022): 0.31
- FIC (bacterial isolates; peptide + Gentamicin, P. aeruginosa PA023): 0.52
- FIC (bacterial isolates; peptide + Gentamicin, S. maltophilia SMA016): 0.56
- FIC (bacterial isolates; peptide + Gentamicin, S. maltophilia SMA017): 0.53
